Legend:
[1] = cited from earlier work
[2] = tested on: aflatoxin B-1-8,9-epoxide formation; settings: cited from earlier work
Swiss Albino male mice = assay: Elevated plus maze test in mice; assay type: in vivo; settings: Diazepam 1.5 mg/kg p.o.
Description: 1. Animals: Swiss Albino male mice 20-25 gm body weights were procured from Laboratory Animal Services Division of Central Drug Research Institute, Lucknow. All animals were kept in polyacrylic cage in environmentally controlled rooms (temperature 24-27° C. and humidity 60-65% with 12:12 light:dark cycle). Food was provided in the form of dry pellets and water ad libitum. Each animal was used only once in the behavioral tests and were habituated with the experimental room one day prior to the experiment All experiments involving animals complies with the ethical standards of animal handling and approved by Institutional Animal Ethics Committee.
Treatment of animals: Diazepam was diluted in distilled water, administered by […]. The extract was dissolved in 0.5% gum acacia suspension and administered by oral route.
Elevated plus maze test in mice: This test was used to evaluate the anti-anxiety activity. The test is based on the principal of conflict between exploration and fear of open/or closed arms. Apparatus consists of a raised stainless steel maze of four arms arranged in ‘+’ sign. Two of opposite arms are enclosed by raised walls whereas other arms are kept open. All the four arms consist of infrared beams at regular distance. The movement of animal across the arms is calculated by interruption of beams, which was analyzed by Maze Tracking Software (M/s. Columbus Instruments, USA). The trial was started by placing an animal on the central platform of the maze facing an open arm. Animals were given a period of 2 min to acclimatize with its surroundings. The time spent in each of the two types of arm was recorded during the next 5 min test period. The percentage open arm time were used as index of anxiety. The apparatus was cleaned thoroughly between trials with damp and dry towels.
Diazepam (1.5 mg/kg) and the Cassia tora leaves extract (100 mg/kg) was orally administered one hour prior to the experiment.

[3] = dose of 0.2 mg/mL; cited from earlier work

## CC1=CCC(O)(C(C)C)CC1 (stereo not drawn) [4-terpineol]
[1]
  IC50 against hydroxyl radicals: 87.5 mu g/mL

## O=C1c2cccc(O)c2C(=O)c2cccc(O)c21 [anthrarufm, anthrarufin]
[2]
  IC50: 11.5 µM

## O=C1c2ccc(O)cc2C(=O)c2ccc(O)cc21 [anthraflavine]
[2]
  IC50: 26.9 µM

## O=c1c(O)c(-c2ccc(O)c(O)c2)oc2cc(O)cc(O)c12 [quercetin]
[1]
  IC50 against hydroxyl radicals: 8.15 mu g/mL

## CN1C(=O)CN=C(c2ccccc2)c2cc(Cl)ccc21 [Diazepam]
Swiss Albino male mice; extract 100 mg/kg p.o., P<0.01
  percentage of time spent in open arms in comparison to saline treated control mice: significant increase
Swiss Albino male mice; mice, extracts 100 mg/kg p.o.
  % time spent in open arms: 23.38%
Swiss Albino male mice; mice, extracts 100 mg/kg p.o., one hour prior, Mean ± SEM
  Time spent in open arms (secs) out of 300 secs: 70.16 ± 4.09 s

## Cc1c(C)c2c(c(C)c1O)CC[C@@](C)(CCC[C@H](C)CCC[C@H](C)CCCC(C)C)O2 [alpha-tocopherol]
[3]
  inhibition of peroxidation of linoleic acid: 82%

## O=C1c2ccccc2C(=O)c2c(O)ccc(O)c21 [quinizarin]
[2]
  IC50: 4.12 µM
